Assay results from ChEMBL document CHEMBL5107956, “Natural products from mangrove sediments-derived microbes: Structural diversity, bioactivities, biosynthesis, and total synthesis” (Eur J Med Chem, 2022).
In brackets after ≈: the same amount, converted by molar mass.

What was measured:
[1] = tested on: Trypanosoma brucei brucei; assay: Antitrypanosomal activity against Trypanosoma brucei brucei GUTat3.1 assessed as parasite growth inhibition measured after 24 hrs by alamar blue staining based analysis; type: functional, organism-based; settings: GUTat3.1, 24 h
Leishmania donovani = assay: Antileishmanial activity against Leishmania donovani D10 promastigotes assessed as parasite growth inhibition incubated for 24 hrs by alamar blue staining based analysis; type: functional, organism-based; settings: D10, 24 h
Plasmodium falciparum = assay: Antiplasmodial activity against Plasmodium falciparum 3D7 infected in human erythrocyte assessed as intraerythrocytic growth inhibition measured after 24 hrs by alamar blue staining based analysis; type: functional, organism-based; settings: 3D7, Erythrocyte
Leishmania major = assay: Antileishmanial activity against Leishmania major NR48815 promastigotes assessed as parasite growth inhibition incubated for 24 hrs by alamar blue staining based analysis; type: functional, organism-based; settings: NR48815, 24 h
[2] = biological target: Angiotensin-converting enzyme (Homo sapiens, UniProt P12821); assay: Inhibition of ACE (unknown origin) using hippuryl-histidyl-leucine as substrate pre-incubated with compound for 10 mins followed by substrate addition measured after 60 mins by HPLC analysis
[3] = tested on: Colletotrichum gloeosporioides; assay: Antifungal activity against Colletotrichum gloeosporioides assessed as inhibition of fungal growth measured after 72 hrs by micro plate reader analysis; type: functional
Meloidogyne incognita = assay: Nematicidal activity against Meloidogyne incognita; type: functional; settings: read-out: LD50 (the source's name)
Meloidogyne javanica = assay: Nematicidal activity against Meloidogyne javanica; type: functional; settings: read-out: LD50 (the source's name)
A549 = assay: Antiproliferative activity against human A549 cells assessed as cell growth inhibition by MTT assay; type: functional, cell-based
Bel-7402 = assay: Cytotoxicity against human Bel-7402 cells assessed as cell growth inhibition by MTT assay; type: functional, cell-based
HCT-8 = assay: Cytotoxicity against human HCT-8 cells assessed as cell growth inhibition by MTT assay; type: functional, cell-based
A2780 = assay: Cytotoxicity against human A2780 cells assessed as cell growth inhibition by MTT assay; type: functional, cell-based
Aspergillus niger = assay: Antifungal activity against Aspergillus niger MTCC 282 assessed as cell growth inhibition measured after 48 to 72 hrs; type: functional; settings: time 48-72 hrs
Candida albicans = assay: Antifungal activity against Candida albicans MTCC 227 assessed as cell growth inhibition measured after 48 to 72 hrs; type: functional; settings: time 48-72 hrs
Saccharomyces cerevisiae = assay: Antifungal activity against Saccharomyces cerevisiae MTCC 170 assessed as cell growth inhibition measured after 48 to 72 hrs; type: functional; settings: time 48-72 hrs
[4] = Antioxidant activity assessed as DPPH radical scavenging activity incubated for 30 mins by […] assay; type: functional
ACHN = assay: Antiproliferative activity against human ACHN cells assessed as cell growth inhibition; type: functional, cell-based
20S proteasome = assay: Inhibition of 20S proteasome (unknown origin) by fluorescence based assay; type: protein-complex assay, Homo sapiens
[5] = biological target: Rho-associated protein kinase 2 (Homo sapiens, UniProt O75116); assay: Inhibition of ROCK2 (unknown origin) by HTRF kinase assay
[6] = tested on: Trypanosoma brucei brucei; assay: Antitrypanosomal activity against Trypanosoma brucei brucei GUTat3.1 assessed as parasite growth inhibition measured after 72 hrs by alamar blue staining based analysis; type: functional, organism-based; settings: GUTat3.1, 72 h
HL-60 = assay: Cytotoxicity against human HL-60 cells assessed as cell growth inhibition measured after 72 hrs by MTT assay; type: functional, cell-based; settings: HL-60, 72 h
NCI-H1975 = assay: Cytotoxicity against human NCI-H1975 cells assessed as cell growth inhibition measured after 72 hrs by MTT assay; type: functional, cell-based; settings: NCI-H1975, 72 h
[7] = Cytotoxicity against human ACC-MESO-1 cells assessed as cell growth inhibition measured after 48 hrs by WST-8 assay; type: functional, cell-based; settings: ACC-MESO-1, 48 h
HeLa = assay: Cytotoxicity against human HeLa cells assessed as cell growth inhibition measured after 48 hrs by WST-8 assay; type: functional, cell-based
[8] = Inhibition of influenza A virus Neuraminidase N3 incubated for 10 mins by fluorescence based analysis
K562 = assay: Cytotoxicity against human K562 cells assessed as inhibition of cell growth by MTT assay; type: functional, cell-based
NCI-H2122 = assay: Cytotoxicity against human NCI-H2122 cells assessed as cell growth inhibition measured after 96 hrs by CellTiter-Glo assay; type: functional, cell-based; settings: NCI-H2122, 96 h
[9] = Cytotoxicity against human HCC366 cells assessed as cell growth inhibition measured after 96 hrs by CellTiter-Glo assay; type: functional, cell-based; settings: HCC366, 96 h
[10] = biological target: Phosphotyrosine-protein phosphatase PTPB (Mycobacterium tuberculosis, UniProt P96830); assay: Inhibition of N-terminal His6-tagged Mycobacterium tuberculosis H37Rv PTPB using 6,8-difluoromethylumbelliferyl phosphate as substrate incubated for 30 mins by fluorescence based analysis
RAW264.7 = assay: Antiinflammatory activity against LPS-induced mouse RAW264.7 cells assessed as inhibition of NO production measured after 24 hrs […]; type: functional, cell-based; settings: RAW264.7, 24 h

Chain of Rho-associated protein kinase 2 (O75116 whole entry): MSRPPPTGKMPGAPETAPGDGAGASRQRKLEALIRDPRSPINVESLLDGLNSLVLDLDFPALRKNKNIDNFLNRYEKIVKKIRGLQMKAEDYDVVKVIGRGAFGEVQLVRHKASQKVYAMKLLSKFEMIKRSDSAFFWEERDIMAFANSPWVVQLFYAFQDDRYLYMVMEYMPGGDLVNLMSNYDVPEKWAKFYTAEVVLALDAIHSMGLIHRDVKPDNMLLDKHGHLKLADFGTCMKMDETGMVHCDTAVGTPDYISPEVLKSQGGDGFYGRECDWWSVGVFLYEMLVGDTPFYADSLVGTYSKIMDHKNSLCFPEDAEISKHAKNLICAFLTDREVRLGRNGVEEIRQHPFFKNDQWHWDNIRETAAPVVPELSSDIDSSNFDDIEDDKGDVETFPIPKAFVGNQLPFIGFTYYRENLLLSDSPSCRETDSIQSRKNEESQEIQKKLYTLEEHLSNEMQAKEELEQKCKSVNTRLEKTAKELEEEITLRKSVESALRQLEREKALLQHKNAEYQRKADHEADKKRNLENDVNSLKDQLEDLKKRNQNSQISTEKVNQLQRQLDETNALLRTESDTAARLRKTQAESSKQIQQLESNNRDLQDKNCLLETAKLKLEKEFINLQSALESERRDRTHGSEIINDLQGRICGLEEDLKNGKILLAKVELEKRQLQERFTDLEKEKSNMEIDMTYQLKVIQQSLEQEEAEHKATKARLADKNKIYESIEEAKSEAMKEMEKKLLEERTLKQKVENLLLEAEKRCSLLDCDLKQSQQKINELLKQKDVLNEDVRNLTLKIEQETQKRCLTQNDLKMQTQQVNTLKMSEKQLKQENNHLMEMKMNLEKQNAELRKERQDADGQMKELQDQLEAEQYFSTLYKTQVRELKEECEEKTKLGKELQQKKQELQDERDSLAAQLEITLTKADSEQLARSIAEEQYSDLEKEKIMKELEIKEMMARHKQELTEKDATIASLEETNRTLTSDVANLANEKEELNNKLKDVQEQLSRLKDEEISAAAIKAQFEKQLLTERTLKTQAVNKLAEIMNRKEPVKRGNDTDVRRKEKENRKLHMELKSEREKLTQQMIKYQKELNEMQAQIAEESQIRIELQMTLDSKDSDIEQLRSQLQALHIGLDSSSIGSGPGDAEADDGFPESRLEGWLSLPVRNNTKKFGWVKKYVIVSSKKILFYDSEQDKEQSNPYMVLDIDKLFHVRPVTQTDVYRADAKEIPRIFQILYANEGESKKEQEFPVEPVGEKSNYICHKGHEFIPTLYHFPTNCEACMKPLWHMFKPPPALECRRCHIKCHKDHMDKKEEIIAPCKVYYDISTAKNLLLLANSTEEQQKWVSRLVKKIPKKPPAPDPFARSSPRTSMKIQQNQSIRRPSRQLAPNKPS
Chain of Angiotensin-converting enzyme (P12821 whole entry): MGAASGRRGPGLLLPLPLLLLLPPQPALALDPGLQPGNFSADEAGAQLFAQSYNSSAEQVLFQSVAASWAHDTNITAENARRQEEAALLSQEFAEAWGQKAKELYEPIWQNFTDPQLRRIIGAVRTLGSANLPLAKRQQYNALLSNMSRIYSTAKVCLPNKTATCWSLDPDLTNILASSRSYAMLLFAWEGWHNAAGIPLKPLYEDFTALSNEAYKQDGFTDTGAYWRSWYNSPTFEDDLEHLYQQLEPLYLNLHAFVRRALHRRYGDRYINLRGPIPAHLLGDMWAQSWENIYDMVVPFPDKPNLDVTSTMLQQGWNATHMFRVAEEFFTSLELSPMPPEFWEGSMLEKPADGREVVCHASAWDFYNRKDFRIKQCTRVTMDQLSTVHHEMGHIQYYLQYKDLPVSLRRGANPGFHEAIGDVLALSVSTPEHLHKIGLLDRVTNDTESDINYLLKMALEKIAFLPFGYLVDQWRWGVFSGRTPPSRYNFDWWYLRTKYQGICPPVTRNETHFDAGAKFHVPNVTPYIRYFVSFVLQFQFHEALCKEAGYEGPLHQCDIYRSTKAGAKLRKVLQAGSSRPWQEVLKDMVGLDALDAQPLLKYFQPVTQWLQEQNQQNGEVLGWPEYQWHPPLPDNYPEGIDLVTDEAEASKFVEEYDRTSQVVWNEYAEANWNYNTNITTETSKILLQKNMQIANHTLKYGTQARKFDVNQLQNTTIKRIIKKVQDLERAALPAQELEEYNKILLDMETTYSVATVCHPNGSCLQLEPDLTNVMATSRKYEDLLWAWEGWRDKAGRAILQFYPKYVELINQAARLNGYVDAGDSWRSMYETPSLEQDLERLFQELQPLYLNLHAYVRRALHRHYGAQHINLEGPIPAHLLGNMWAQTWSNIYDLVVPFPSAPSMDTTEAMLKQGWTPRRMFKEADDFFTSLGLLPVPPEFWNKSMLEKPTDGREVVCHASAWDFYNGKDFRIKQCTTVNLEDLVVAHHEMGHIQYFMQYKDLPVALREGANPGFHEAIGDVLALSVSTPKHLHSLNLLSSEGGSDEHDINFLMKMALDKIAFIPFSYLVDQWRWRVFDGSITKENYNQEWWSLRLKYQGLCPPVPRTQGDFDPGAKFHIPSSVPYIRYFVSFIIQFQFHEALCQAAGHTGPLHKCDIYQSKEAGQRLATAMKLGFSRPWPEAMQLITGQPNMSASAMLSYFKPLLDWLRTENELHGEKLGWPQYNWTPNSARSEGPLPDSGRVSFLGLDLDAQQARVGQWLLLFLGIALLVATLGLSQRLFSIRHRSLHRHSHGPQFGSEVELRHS
Chain of Phosphotyrosine-protein phosphatase PTPB (P96830 whole entry): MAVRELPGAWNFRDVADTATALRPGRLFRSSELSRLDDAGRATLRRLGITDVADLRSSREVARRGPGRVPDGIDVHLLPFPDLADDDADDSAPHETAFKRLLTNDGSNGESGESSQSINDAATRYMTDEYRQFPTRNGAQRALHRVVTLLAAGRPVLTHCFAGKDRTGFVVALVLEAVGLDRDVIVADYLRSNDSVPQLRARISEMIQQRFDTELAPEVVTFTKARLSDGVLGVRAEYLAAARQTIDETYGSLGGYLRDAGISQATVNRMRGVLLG

Compound: Cc1c(C)[n+](CCC(C)C)c(-c2n(CCc3ccccc3)c(C)c(C)[n+]2CCC(C)C)n1CCc1ccccc1
- IC50 [1]: 780 nM
- IC50 (Leishmania donovani): 750 nM
- IC50 (Plasmodium falciparum): 9080 nM
- IC50 (Leishmania major): 7020 nM

Compound: CC(=O)C[C@]1(O)C(=O)C2=C3O[C@H](C)C(C)(C)[C@]3(O)C(=O)c3c(C)cc(O)c(c32)C1=O
- IC50 [2]: 11300 nM

Compound: CC1=CC[C@]23C[C@@H]1C[C@@](C)(O)[C@H]2[C@H](O)C[C@@H]3C
- MIC [3]: 1 µg/mL (≈ 4.23 µM)

Compound: CCCCCC[C@@H](O)[C@@H]1C(=O)O[C@H](C)[C@@H](O)/C=C/C=C/C=C/C=C/C=C(\C)[C@@H](O)[C@H](O)[C@@H](O)C[C@H](O)C[C@H](O)C[C@@H](O)C[C@@H](O)C[C@@H]1O
- LC50 (Meloidogyne incognita): 7.64 µg/mL (≈ 11.2 µM)
- LC50 (Meloidogyne javanica): 7.83 µg/mL (≈ 11.4 µM)

Compound: C=C1CC[C@H]2C(C)(C)CCC[C@]2(C)[C@H]1C[C@@]12C[C@H]3C(=O)N(C)[C@@H](C(C)C)C(=O)N3[C@@H]1Nc1ccccc12
- IC50 (A549): 1000 nM
- IC50 (Bel-7402): 1000 nM
- IC50 (HCT-8): 1000 nM
- IC50 (A2780): 1000 nM

Compound: CC(=O)C[C@@]1(O)C(=O)C2=C3O[C@H](C)C(C)(C)[C@]3(O)C(=O)c3c(C)cc(O)c(c32)C1=O
- IC50 [2]: 3100 nM

Compound: C=CCOc1ccccc1O [1-hydroxy-2-allyloxybenzene]
- MIC (Aspergillus niger): 200 µg/mL (≈ 1330 µM)
- MIC (Candida albicans): 200 µg/mL (≈ 1330 µM)
- MIC (Saccharomyces cerevisiae): 200 µg/mL (≈ 1330 µM)
- IC50 [4]: 22 µg/mL (≈ 146 µM)

Compound: COc1nc(C/C=C(\C)C/C(C)=C/C(C)=C/[C@@H](C)[C@@H](O)/C(C)=C/C(C)=O)cc(O)c1OC
- IC50 (ACHN): 20 nM

Compound: CC(=O)O[C@@H]1C[C@H](C)[C@@]23CC=C(C)[C@H](C2)C[C@@](C)(O)[C@@H]13
- MIC [3]: 0.125 µg/mL (≈ 0.449 µM)

Compound: CC(C)[C@H](O)[C@@]12NC(=O)[C@H](C)[C@@H]1OC2=O [OMURALIDE]
- IC50 (20S proteasome): 49 nM

Compound: CCOC(=O)[C@H](Cc1c(O)cc(C)c2c(O)c3c(cc12)[C@@H](O)CCC3=O)C(=O)OC
- IC50 [5]: 960 nM

Compound: CCCC1C(O)=C2CCC3(C)CC(C)C(O3)C(C)C(O)C(C)C(=O)CC1OC2=O (stereo not drawn)
- IC50 [6]: 2.4 µg/mL (≈ 5.87 µM)

Compound: C/C=C/C1=CC(=O)[C@]2(C(=O)c3c(OC)cc(OC)cc3C(=O)OC)O[C@@H]2O1
- IC50 (HL-60): 3700 nM
- IC50 (NCI-H1975): 3700 nM

Compound: O=C1CCC(=O)O[C@@H]2[C@@H](O)[C@H](O)[C@@H](COC(=O)CCC(=O)O[C@@H]3[C@@H](O)[C@H](O)[C@@H](CO1)O[C@@H]3O)O[C@@H]2O
- IC50 [7]: 48000 nM
- IC50 (HeLa): 37000 nM

Compound: CN1C(=O)c2cc(O)ccc2NC(=O)C12O[C@H]2c1ccccc1 (stereo partly drawn)
- IC50 [8]: 5020 nM

Compound: C[C@@H]1OC(=O)[C@@H](O)[C@@H](C)OC(=O)[C@H](C)[C@H]1O
- IC50 (K562): 1360 nM

Compound: CCOC(=O)[C@@H](Cc1c(O)cc(C)c2c(O)c3c(cc12)[C@@H](O)CCC3=O)C(=O)OC
- IC50 [5]: 960 nM

Compound: COc1cc2nc(C(=O)NCC(=O)O)sc2c(C/C=C(\C)CC/C=C(\C)CC/C=C(\C)CCC/C(C)=C\CC(=O)O)c1O
- IC50 (NCI-H2122): 2500 nM
- IC50 [9]: 6800 nM

Compound: CC(C)[C@@H](C)/C=C\[C@@H](C)[C@@]1(C)C[C@H]2C3=C4[C@@H](C=C5C[C@@H](O)CC[C@]5(C)[C@H]4CC[C@@]31C)[C@H](C(=O)O)[C@H]2C(=O)O
- IC50 [10]: 30100 nM
- IC50 (RAW264.7): 3600 nM
